The text below walks through data of patent US9492496B2, “Aminothiazoles and their uses” (Novartis AG, priority 2007, dated 2016).

This assay relates to prokaryotic transcription-translation (E. coli S30 extract). The experiment in a line: In vitro assay for inhibition of prokaryotic transcription-translation (Promega E. coli S30 Extract System, pBESTluc luciferase readout). It is filed as biochemical. The note with it: 2 uM compound, 2 h at 37° C., luciferase luminescence. Here is the method: In vitro assay for inhibition of prokaryotic transcription-translation [as described in the following references: 1. Zubay, G. (1973) In vitro synthesis of protein in microbial systems. Annu. Rev. Genet. 7, 267.87. 2. Zubay, G. (1980) The isolation and properties of CAP, the catabolite gene activator. Meth. Enzymol. 65, 856.77]. Antibiotic and compound dilutions: stock solutions of compound to be assayed at 2 μM are 80 μM in 40% DMSO. Stock solutions of compounds to be assayed at 10 μM are 400 μM in 40% DMSO.
Assay setup and protocol for Promega E. coli S30 Extract System
The assay is performed as follows: pipet 3.5 μl of 286 ng/μl template DNA (pBESTluc™) into assay wells. Negative control wells receive sdH2O only. Transfer 0.5 μl of 40× compound stock solution to assay wells. Positive control wells (no compound) receive 0.5 μl 40% DMSO sdH2O. Pipet 16 μl of master mix into assay wells. Incubate plate for two hours at 37° C. Rapidly chill the assay plate on ice for five minutes to stop the reaction. Add an equal volume (20 μl) of room temperature Steady-Glo® Luciferase assay reagent to all assay wells. Incubate 20 minutes and read light emitted with luminometer. Results are reported as % inhibition a 2 μM or 10 μM.

For the compound `CNC(=O)C[C@@H]1NC(=O)c2csc(n2)-c2ccc(-c3nc(N(CCCCC(=O)O)C(=O)O[C@H]4CC[C@@](CCCCC(=O)O)(C(=O)O)CC4)cs3)nc2-c2csc(n2)-c2csc(n2)[C@H]([C@@H](O)c2ccccc2)NC(=O)CNC(=O)c2nc(sc2COC)C(C(C)C)NC(=O)c2nc1sc2C` (some centres unmarked) [Compound 33], the “% inh. @ 2 uM” value was 2 uM = 46.8%. Turning to `CNC(=O)C[C@@H]1NC(=O)c2csc(n2)-c2ccc(-c3nc(NC(=O)N4C[C@H](CCC(=O)O)C[C@H](CCC(=O)O)C4)cs3)nc2-c2csc(n2)-c2csc(n2)[C@H]([C@@H](O)c2ccccc2)NC(=O)CNC(=O)c2nc(sc2COC)C(C(C)C)NC(=O)c2nc1sc2C` (some centres unmarked) [Compound 11], the “% inh. @ 2 uM” value stood at 2 uM = 92.3%. In the case of `CNC(=O)C[C@@H]1NC(=O)c2csc(n2)-c2ccc(-c3nc(N(CCCCC(=O)O)C(=O)N4CCC(C(=O)O)CC4)cs3)nc2-c2csc(n2)-c2csc(n2)[C@H]([C@@H](O)c2ccccc2)NC(=O)CNC(=O)c2nc(sc2COC)C(C(C)C)NC(=O)c2nc1sc2C` (some centres unmarked) [Compound 21], the “% inh. @ 2 uM” value worked out at 2 uM = 37.4%. Regarding `CNC(=O)C[C@@H]1NC(=O)c2csc(n2)-c2ccc(-c3nc(NC(=O)N(CCCC(=O)O)[C@H]4CC[C@H](C(=O)O)CC4)cs3)nc2-c2csc(n2)-c2csc(n2)[C@H]([C@@H](O)c2ccccc2)NC(=O)CNC(=O)c2nc(sc2COC)C(C(C)C)NC(=O)c2nc1sc2C` (some centres unmarked) [Compound 23], the “% inh. @ 2 uM” value turned out to be 2 uM = 79.8%. Turning to `CNC(=O)C[C@@H]1NC(=O)c2csc(n2)-c2ccc(-c3nc(N(CCCC(=O)O)C(=O)c4ccc(C(=O)O)cn4)cs3)nc2-c2csc(n2)-c2csc(n2)[C@H]([C@@H](O)c2ccccc2)NC(=O)CNC(=O)c2nc(sc2COC)C(C(C)C)NC(=O)c2nc1sc2C` (some centres unmarked) [Compound 14], the “% inh. @ 2 uM” value came to 2 uM = 55.5%. In the case of `CNC(=O)C[C@@H]1NC(=O)c2csc(n2)-c2ccc(-c3nc(N(CCOCC(=O)O)C(=O)O[C@H]4CC[C@H](C(=O)O)CC4)cs3)nc2-c2csc(n2)-c2csc(n2)[C@H]([C@@H](O)c2ccccc2)NC(=O)CNC(=O)c2nc(sc2COC)C(C(C)C)NC(=O)c2nc1sc2C` (some centres unmarked) [Compound 24], the “% inh. @ 2 uM” value came to 2 uM = 70.3%. `CNC(=O)C[C@@H]1NC(=O)c2csc(n2)-c2ccc(-c3nc(N(CCCCC(=O)O)C(=O)C[C@H]4CC[C@H](C(=O)O)CC4)cs3)nc2-c2csc(n2)-c2csc(n2)[C@H]([C@@H](O)c2ccccc2)NC(=O)CNC(=O)c2nc(sc2COC)C(C(C)C)NC(=O)c2nc1sc2C` (some centres unmarked) [Compound 17]: the “% inh. @ 2 uM” value came to 2 uM = 63.9%. Turning to `CNC(=O)C[C@@H]1NC(=O)c2csc(n2)-c2ccc(-c3nc(N(CC(CC(=O)O)OC)C(=O)O[C@H]4CC[C@H](C(=O)O)CC4)cs3)nc2-c2csc(n2)-c2csc(n2)[C@H]([C@@H](O)c2ccccc2)NC(=O)CNC(=O)c2nc(sc2COC)C(C(C)C)NC(=O)c2nc1sc2C` (some centres unmarked) [Compound 20], the “% inh. @ 2 uM” value is 2 uM = 80.6%. On to `CNC(=O)C[C@@H]1NC(=O)c2csc(n2)-c2ccc(-c3nc(N(CCCCC(=O)O)C(=O)OCC4CC4C(=O)O)cs3)nc2-c2csc(n2)-c2csc(n2)[C@H]([C@@H](O)c2ccccc2)NC(=O)CNC(=O)c2nc(sc2COC)C(C(C)C)NC(=O)c2nc1sc2C` (some centres unmarked) [Compound 27], for which the “% inh. @ 2 uM” value came to 2 uM = 81.9%.

`CNC(=O)C[C@@H]1NC(=O)c2csc(n2)-c2ccc(-c3nc(N(CCCCC(=O)O)C(=O)O[C@H]4CC[C@H](C(=O)O)C[C@@H]4CCCCC(=O)O)cs3)nc2-c2csc(n2)-c2csc(n2)[C@H]([C@@H](O)c2ccccc2)NC(=O)CNC(=O)c2nc(sc2COC)C(C(C)C)NC(=O)c2nc1sc2C` (some centres unmarked) [Compound 29]: the “% inh. @ 2 uM” value turned out to be 2 uM = 79.6%.

As for `CNC(=O)C[C@@H]1NC(=O)c2csc(n2)-c2ccc(-c3nc(N(CCCCCC(=O)O)C(=O)O[C@H]4CC[C@H](C(=O)O)CC4)cs3)nc2-c2csc(n2)-c2csc(n2)[C@H]([C@@H](O)c2ccccc2)NC(=O)CNC(=O)c2nc(sc2COC)C(C(C)C)NC(=O)c2nc1sc2C` (some centres unmarked) [Compound 7], the “% inh. @ 2 uM” value is 2 uM = 86.0%. On to `CNC(=O)C[C@@H]1NC(=O)c2csc(n2)-c2ccc(-c3nc(N(CCCCC(CCC(=O)O)C(=O)O)C(=O)O[C@H]4CC[C@H](C(=O)O)CC4)cs3)nc2-c2csc(n2)-c2csc(n2)[C@H]([C@@H](O)c2ccccc2)NC(=O)CNC(=O)c2nc(sc2COC)C(C(C)C)NC(=O)c2nc1sc2C` (some centres unmarked) [Compound 28], for which the “% inh. @ 2 uM” value was determined as 2 uM = 77.0%. `CNC(=O)C[C@@H]1NC(=O)c2csc(n2)-c2ccc(-c3nc(NC(=O)N(CCCC(=O)O)CCCC(=O)O)cs3)nc2-c2csc(n2)-c2csc(n2)[C@H]([C@@H](O)c2ccccc2)NC(=O)CNC(=O)c2nc(sc2COC)C(C(C)C)NC(=O)c2nc1sc2C` (some centres unmarked) [Compound 22]: the “% inh. @ 2 uM” value is 2 uM = 79.8%. Take `CNC(=O)C[C@@H]1NC(=O)c2csc(n2)-c2ccc(-c3nc(N(CCCCC(=O)O)C(=O)O[C@]4(CCCCC(=O)O)CC[C@@H](C(=O)O)CC4)cs3)nc2-c2csc(n2)-c2csc(n2)[C@H]([C@@H](O)c2ccccc2)NC(=O)CNC(=O)c2nc(sc2COC)C(C(C)C)NC(=O)c2nc1sc2C` (some centres unmarked) [Compound 34]: the “% inh. @ 2 uM” value is 2 uM = 63.1%. Regarding `CNC(=O)C[C@@H]1NC(=O)c2csc(n2)-c2ccc(-c3nc(N(CCCC(=O)O)C(=O)CCCCC(=O)O)cs3)nc2-c2csc(n2)-c2csc(n2)[C@H]([C@@H](O)c2ccccc2)NC(=O)CNC(=O)c2nc(sc2COC)C(C(C)C)NC(=O)c2nc1sc2C` (some centres unmarked) [Compound 8], the “% inh. @ 2 uM” value stood at 2 uM = 59.7%. `CNC(=O)C[C@@H]1NC(=O)c2csc(n2)-c2ccc(-c3nc(NC(=O)CC[C@H](CC(=O)O)C(=O)O)cs3)nc2-c2csc(n2)-c2csc(n2)[C@H]([C@@H](O)c2ccccc2)NC(=O)CNC(=O)c2nc(sc2COC)C(C(C)C)NC(=O)c2nc1sc2C` (some centres unmarked) [Compound 1]: the “% inh. @ 2 uM” value is on record as 2 uM = 65.4%. Take `CNC(=O)C[C@@H]1NC(=O)c2csc(n2)-c2ccc(-c3nc(N(CCCC(=O)O)C(=O)C[C@H]4CC[C@H](C(=O)O)CC4)cs3)nc2-c2csc(n2)-c2csc(n2)[C@H]([C@@H](O)c2ccccc2)NC(=O)CNC(=O)c2nc(sc2COC)C(C(C)C)NC(=O)c2nc1sc2C` (some centres unmarked) [Compound 15]: the “% inh. @ 2 uM” value is 2 uM = 64.5%. In the case of `CNC(=O)C[C@@H]1NC(=O)c2csc(n2)-c2ccc(-c3nc(N(CCCCC(=O)O)C(=O)OCc4ccc(C(=O)O)cn4)cs3)nc2-c2csc(n2)-c2csc(n2)[C@H]([C@@H](O)c2ccccc2)NC(=O)CNC(=O)c2nc(sc2COC)C(C(C)C)NC(=O)c2nc1sc2C` (some centres unmarked) [Compound 13], the “% inh. @ 2 uM” value is 2 uM = 74.9%. `CNC(=O)C[C@@H]1NC(=O)c2csc(n2)-c2ccc(-c3nc(N(CCCCC(=O)O)C(=O)N[C@H]4CC[C@H](C(=O)O)CC4)cs3)nc2-c2csc(n2)-c2csc(n2)[C@H]([C@@H](O)c2ccccc2)NC(=O)CNC(=O)c2nc(sc2COC)C(C(C)C)NC(=O)c2nc1sc2C` (some centres unmarked) [Compound 18]: the “% inh. @ 2 uM” value came to 2 uM = 52.7%. Under `CNC(=O)C[C@@H]1NC(=O)c2csc(n2)-c2ccc(-c3nc(NC(=O)CC[C@@H](CC(=O)O)C(=O)O)cs3)nc2-c2csc(n2)-c2csc(n2)[C@H]([C@@H](O)c2ccccc2)NC(=O)CNC(=O)c2nc(sc2COC)C(C(C)C)NC(=O)c2nc1sc2C` (some centres unmarked) [Compound 2] stands 2 uM = 72.8%. In the case of `CNC(=O)C[C@@H]1NC(=O)c2csc(n2)-c2ccc(-c3nc(N(CCCCC(=O)O)C(=O)O[C@H]4C[C@H](C(=O)O)C4)cs3)nc2-c2csc(n2)-c2csc(n2)[C@H]([C@@H](O)c2ccccc2)NC(=O)CNC(=O)c2nc(sc2COC)C(C(C)C)NC(=O)c2nc1sc2C` (some centres unmarked) [Compound 9], the “% inh. @ 2 uM” value is given as 2 uM = 67.1%.

As for `CNC(=O)C[C@@H]1NC(=O)c2csc(n2)-c2ccc(-c3nc(N(CCCCC(=O)O)C(=O)OC(CCCCC(=O)O)CCC(=O)O)cs3)nc2-c2csc(n2)-c2csc(n2)[C@H]([C@@H](O)c2ccccc2)NC(=O)CNC(=O)c2nc(sc2COC)C(C(C)C)NC(=O)c2nc1sc2C` (some centres unmarked) [Compound 26], the “% inh. @ 2 uM” value turned out to be 2 uM = 68.2%. Consider `CNC(=O)C[C@@H]1NC(=O)c2csc(n2)-c2ccc(-c3nc(N(CCCCC(=O)O)C(=O)O[C@H]4CC[C@](CCCCC(=O)O)(C(=O)OC)CC4)cs3)nc2-c2csc(n2)-c2csc(n2)[C@H]([C@@H](O)c2ccccc2)NC(=O)CNC(=O)c2nc(sc2COC)C(C(C)C)NC(=O)c2nc1sc2C` (some centres unmarked) [Compound 25], for which the “% inh. @ 2 uM” value was determined as 2 uM = 83.7%. For the compound `CNC(=O)C[C@@H]1NC(=O)c2csc(n2)-c2ccc(-c3nc(N(CCCC(CCCCCCC(=O)O)C(=O)O)C(=O)O[C@H]4CC[C@H](C(=O)O)CC4)cs3)nc2-c2csc(n2)-c2csc(n2)[C@H]([C@@H](O)c2ccccc2)NC(=O)CNC(=O)c2nc(sc2COC)C(C(C)C)NC(=O)c2nc1sc2C` (some centres unmarked) [Compound 31], the “% inh. @ 2 uM” value is 2 uM = 79.4%. Regarding `CNC(=O)C[C@@H]1NC(=O)c2csc(n2)-c2ccc(-c3nc(NC(=O)OCCC(CCCCC(=O)O)C(=O)O)cs3)nc2-c2csc(n2)-c2csc(n2)[C@H]([C@@H](O)c2ccccc2)NC(=O)CNC(=O)c2nc(sc2COC)C(C(C)C)NC(=O)c2nc1sc2C` (some centres unmarked) [Compound 35], the “% inh. @ 2 uM” value is listed as 2 uM = 87.0%. As for `CNC(=O)C[C@@H]1NC(=O)c2csc(n2)-c2ccc(-c3nc(N(CCCC(=O)O)C(=O)OCCCC(=O)O)cs3)nc2-c2csc(n2)-c2csc(n2)[C@H]([C@@H](O)c2ccccc2)NC(=O)CNC(=O)c2nc(sc2COC)C(C(C)C)NC(=O)c2nc1sc2C` (some centres unmarked) [Compound 3], the “% inh. @ 2 uM” value came out at 2 uM = 67.8%.
